This passage reports EC50 results from patent publication US11078170B2 (Assembly Biosciences, Inc., priority 2017, dated 2021).

pEC50: −log10 of the molar value. Bounds are passed on as bounds.

For this assay, the system named is HBV viral production from HepAD38 cells. The assay is described as follows: Activity of test compounds on viral production from HepAD38 cells (viral load by qPCR of HBV core sequence in supernatant). It is filed as cell-based. To be noted: Hepatitis B virus, 120 h, 5 days incubation, HBV DNA in supernatant by qPCR, top concentration 10 μM, read-out: Viral Load EC50 Activity range. The procedure, abridged: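 EC50 and CC50 come from four-parameter fits of supernatant viral load and CellTiter-Glo viability, respectively. Viral load was measured by core-region TaqMan qPCR against HBV DNA standards and compared with DMSO controls. Tet-free HepAD38 cells (50,000/well, 2% FBS) were exposed to compound, highest 10 μM, for 5 days at 37° C.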
In general terms: In qPCR the cycle at which signal appears reflects the starting amount.

In general, pEC50 refers to −log10 of the EC50, conventionally taken in molar units. `Cc1cc([C@@H]2C[C@H](C(=O)Nc3ccc(F)c(Cl)c3)N(C)S(=O)(=O)N2)sc1-c1cnn(C)c1` [HBV-CSU-300-ISO-II, Cis-N-(3-Chloro-4-fluorophenyl)-5-(4-methyl-5-(1-methyl-1H-pyrazol-4-yl)thiophen-2-yl)-2-methyl-1,2,6-thiadiazinane-3-carboxamide 1,1-dioxide]: the pEC50 is < 5.30.

Regarding `CN1[C@@H](C(=O)Nc2ccc(F)c(Cl)c2)C[C@@H](c2ccc(F)cn2)NS1(=O)=O` [HBV-CSU-032-ISO-II, Cis-N-(3-Chloro-4-fluorophenyl)-5-(5-fluoropyridin-2-yl)-2-methyl-1,2,6-thiadiazinane-3-carboxamide 1,1-dioxide], the pEC50 is < 5.30.

With `COc1ccc(-c2csc([C@@H]3C[C@H](C(=O)Nc4ccc(F)c(Cl)c4)N(C)S(=O)(=O)N3)c2)cc1` [HBV-CSU-241-ISO-II], the pEC50 was 5.30 to 6.00.

Turning to `CN1[C@@H](C(=O)Nc2ccc(F)c(Cl)c2)C[C@@H](c2ncc(-c3ccc(NS(C)(=O)=O)cc3)s2)NS1(=O)=O` [HBV-CSU-179-ISO-II, Cis-N-(3-Chloro-4-fluorophenyl)-2-methyl-5-(5-(4-(methylsulfonamido)phenyl)thiazol-2-yl)-1,2,6-thiadiazinane-3-carboxamide 1,1-dioxide], the pEC50 is 5.30 to 6.00.

With `CN1[C@H](C(=O)Nc2ccc(F)c(Cl)c2)C[C@H](c2ccc(-c3ncnn3C)s2)NS1(=O)=O` [HBV-CSU-323-ISO-I, Cis-N-(3-Chloro-4-fluorophenyl)-2-methyl-5-(5-(1-methyl-1H-1,2,4-triazol-5-yl)thiophen-2-yl)-1,2,6-thiadiazinane-3-carboxamide 1,1-dioxide], the negative-log EC50 (pEC50) was > 6.00.

As for `CN1[C@H](C(=O)Nc2ccc(F)c(Br)c2)C[C@H](c2cccs2)NS1(=O)=O` [HBV-CSU-016-ISO-I, Cis-N-(3-Bromo-4-fluorophenyl)-2-methyl-5-(thiophen-2-yl)-1,2,6-thiadiazinane-3-carboxamide 1,1-dioxide], the pEC50 is > 6.00.

On to `CN1C(C(=O)Nc2ccc(F)c(Cl)c2)CC(c2ccns2)NS1(=O)=O` (stereo not drawn) [HBV-CSU-057, Cis-N-(3-chloro-4-fluorophenyl)-5-(isothiazol-5-yl)-2-methyl-1,2,6-thiadiazinane-3-carboxamide 1,1-dioxide], for which the pEC50 was > 6.00.

Regarding `CSCCN1[C@@H](C(=O)Nc2ccc(F)c(Cl)c2)C[C@@H](c2nccs2)NS1(=O)=O` [HBV-CSU-109-ISO-I, Cis-N-(3-Chloro-4-fluorophenyl)-2-(2-(methylthio)ethyl)-5-(thiazol-2-yl)-1,2,6-thiadiazinane-3-carboxamide 1,1-dioxide], the pEC50 is < 5.30.

With `CN1[C@@H](C(=O)Nc2ccc(F)c(Cl)c2)C[C@@H](c2ccc(-c3cnco3)s2)NS1(=O)=O` [HBV-CSU-269-ISO-II, Cis-N-(3-Chloro-4-fluorophenyl)-2-methyl-5-(5-(oxazol-5-yl)thiophen-2-yl)-1,2,6-thiadiazinane-3-carboxamide 1,1-dioxide], the negative-log EC50 (pEC50) is 5.30 to 6.00.

On to `CN1[C@H](C(=O)Nc2ccc(F)c(Cl)c2)C[C@H](c2ncc(-c3cn[nH]c3)s2)NS1(=O)=O` [HBV-CSU-254-ISO-I, Cis-5-(5-(1H-pyrazol-4-yl)thiazol-2-yl)-N-(3-chloro-4-fluorophenyl)-2-methyl-1,2,6-thiadiazinane-3-carboxamide 1,1-dioxide], for which the pEC50 is > 6.00.

For `[2H]C([2H])([2H])N1C(C(=O)Nc2ccc(F)c(Cl)c2)CC(c2ccc(-c3cn(C)cn3)s2)NS1(=O)=O` (centres unmarked) [HBV-CSU-373], the pEC50 was > 6.00.

As for `CN1C(C(=O)Nc2ccc(F)c(Cl)c2)CC(c2ccc(-c3cn(C)cn3)s2)NS1(=O)=O` (racemic) [HBV-CSU-266, Cis-N-(3-Chloro-4-fluorophenyl)-2-methyl-5-(5-(1-methyl-1H-imidazol-4-yl)thiophen-2-yl)-1,2,6-thiadiazinane-3-carboxamide 1,1-dioxide], the pEC50 is > 6.00.

For `CN1C(C(=O)Nc2ccc(F)c(Cl)c2)CC(c2ncc(-c3ccnn3C)s2)NS1(=O)=O` (racemic) [HBV-CSU-281, Cis-N-(3-Chloro-4-fluorophenyl)-2-methyl-5-(5-(1-methyl-1H-pyrazol-5-yl)thiazol-2-yl)-1,2,6-thiadiazinane-3-carboxamide 1,1-dioxide], the pEC50 was > 6.00.

As for `CN1[C@@H](C(=O)Nc2ccc(F)c(Cl)c2)C[C@@H](c2cc(-c3cnn(C)c3)c(Cl)s2)NS1(=O)=O` [HBV-CSU-306-ISO-II, Cis-5-(5-chloro-4-(1-methyl-1-pyrazol-4-yl)thiophen-2-yl)-N-(3-chloro-4-fluorophenyl)-2-methyl-1,2,6-thiadiazinane-3-carboxamide 1,1-dioxide], the pEC50 was < 5.30.

`CN1[C@H](C(=O)Nc2ccc(F)c(Cl)c2)C[C@H](c2ncc(-c3ccc(F)cc3)s2)NS1(=O)=O` [HBV-CSU-248-ISO-I, Cis-N-(3-Chloro-4-fluorophenyl)-5-(5-(4-fluorophenyl)thiazol-2-yl)-2-methyl-1,2,6-thiadiazinane-3-carboxamide 1,1-dioxide]: the negative logarithm of the EC50 (pEC50) is > 6.00.

Turning to `CN1[C@@H](C(=O)Nc2ccc(F)c(Cl)c2)C[C@@H](c2ncc(-c3cn(C)cn3)s2)NS1(=O)=O` [HBV-CSU-276-ISO-II, Cis-N-(3-Chloro-4-fluorophenyl)-2-methyl-5-(5-(1-methyl-1H-imidazol-4-yl)thiazol-2-yl)-1,2,6-thiadiazinane-3-carboxamide 1,1-dioxide], the pEC50 is < 5.30.

`CN1C(C(=O)Nc2ccc(F)c(Cl)c2)CC(c2cc(-c3cncnc3)cs2)NS1(=O)=O` (racemic) [HBV-CSU-290, Cis-N-(3-chloro-4-fluorophenyl)-2-methyl-5-(4-(pyrimidin-5-yl)thiophen-2-yl)-1,2,6-thiadiazinane-3-carboxamide 1,1-dioxide]: the pEC50 was > 6.00.

As for `Cc1cccc(NC(=O)C2CC(c3cccs3)NS(=O)(=O)N2C)c1` (racemic) [HBV-CSU-013, Cis-2-Methyl-5-(thiophen-2-yl)-N-(m-tolyl)-1,2,6-thiadiazinane-3-carboxamide 1,1-dioxide], the pEC50 was > 6.00.

Regarding `CCn1cc(-c2csc([C@@H]3C[C@H](C(=O)Nc4ccc(F)c(Cl)c4)N(C)S(=O)(=O)N3)c2)cn1` [HBV-CSU-294-ISO-II, Cis-N-(3-chloro-4-fluorophenyl)-5-(4-(1-ethyl-1H-pyrazol-4-yl)thiophen-2-yl)-2-methyl-1,2,6-thiadiazinane-3-carboxamide 1,1-dioxide], the pEC50 is 5.30 to 6.00.

As to `C[C@H]1C[C@@H](C(=O)Nc2ccc(F)c(Cl)c2)N(C)S(=O)(=O)N1` [HBV-CSU-050-ISO-I, Cis-N-(3-chloro-4-fluorophenyl)-2,5-dimethyl-1,2,6-thiadiazinane-3-carboxamide 1,1-dioxide], the pEC50 was 5.30 to 6.00.

Consider `Cc1csc([C@H]2C[C@@H](C(=O)Nc3ccc(F)c(Cl)c3)N(C)S(=O)(=O)N2)c1` [HBV-CSU-147-ISO-I, Cis-N-(3-chloro-4-fluorophenyl)-2-methyl-5-(4-methylthiophen-2-yl)-1,2,6-thiadiazinane-3-carboxamide 1,1-dioxide], for which the negative logarithm of the EC50 (pEC50) is > 6.00.

As to `[2H]C([2H])([2H])N1C(C(=O)Nc2ccc(F)c(Cl)c2)CC(c2ccc(Br)s2)NS1(=O)=O` (racemic) [HBV-CSU-370, Cis-5-(5-bromothiophen-2-yl)-N-(3-chloro-4-fluorophenyl)-2-(methyl-d3)-1,2,6-thiadiazinane-3-carboxamide 1,1-dioxide], the pEC50 was > 6.00.

Regarding `CN1C(C(=O)Nc2ccc(F)c(Cl)c2)CC(c2ccc(-c3cnn(C)c3)s2)NS1(=O)=O` (racemic) [HBV-CSU-161, Cis-N-(3-chloro-4-fluorophenyl)-2-methyl-5-(5-(1-methyl-1H-pyrazol-4-yl)thiophen-2-yl)-1,2,6-thiadiazinane-3-carboxamide 1,1-dioxide], the pEC50 was > 6.00.

Turning to `COCCN1[C@@H](C(=O)Nc2ccc(F)c(Cl)c2)C[C@@H](c2cccs2)NS1(=O)=O` [HBV-CSU-025-ISO-I, Cis-N-(3-chloro-4-fluorophenyl)-2-(2-methoxyethyl)-5-(thiophen-2-yl)-1,2,6-thiadiazinane-3-carboxamide 1,1-dioxide], the pEC50 is < 5.30.

`CN1[C@@H](C(=O)Nc2ccc(F)c(Cl)c2)C[C@@H](c2ccc(-c3ncn(C)n3)s2)NS1(=O)=O` [HBV-CSU-322-ISO-II, Cis-N-(3-Chloro-4-fluorophenyl)-2-methyl-5-(5-(1-methyl-1H-1,2,4-triazol-3-yl)thiophen-2-yl)-1,2,6-thiadiazinane-3-carboxamide 1,1-dioxide]: the negative-log EC50 (pEC50) is < 5.30.

For the compound `[2H]C([2H])([2H])N1[C@@H](C(=O)Nc2ccc(F)c(Cl)c2)C[C@@H](c2ccc(Br)s2)NS1(=O)=O` (relative stereo) [HBV-CSU-370-ISO-II, Cis-5-(5-bromothiophen-2-yl)-N-(3-chloro-4-fluorophenyl)-2-(methyl-d3)-1,2,6-thiadiazinane-3-carboxamide 1,1-dioxide], the pEC50 was 5.30 to 6.00.

On to `O=C(Nc1ccc(F)c(Cl)c1)[C@H]1C[C@@H](c2nccs2)NS(=O)(=O)N1CCOCc1ccccc1` (relative stereo) [HBV-CSU-095-ISO-I, Cis-2-(2-(benzyloxy)ethyl)-N-(3-chloro-4-fluorophenyl)-5-(thiazol-2-yl)-1,2,6-thiadiazinane-3-carboxamide 1,1-dioxide], for which the pEC50 is 5.30 to 6.00.

As for `CN1[C@@H](C(=O)Nc2ccc(F)c(Cl)c2)C[C@@H](c2ccc(-c3cnn(C)c3)s2)NS1(=O)=O` [HBV-CSU-161-ISO-II, Cis-N-(3-chloro-4-fluorophenyl)-2-methyl-5-(5-(1-methyl-1H-pyrazol-4-yl)thiophen-2-yl)-1,2,6-thiadiazinane-3-carboxamide 1,1-dioxide], the pEC50 was 5.30 to 6.00.

With `CN1C(C(=O)Nc2ccc(F)c(Cl)c2)CC(c2ccc(Cc3ccccc3)s2)NS1(=O)=O` (stereo not drawn) [HBV-CSU-117, Cis-(5-benzylthiophen-2-yl)-N-(3-chloro-4-fluorophenyl)-2-methyl-1,2,6-thiadiazinane-3-carboxamide 1,1-dioxide], the pEC50 was > 6.00.
